Columns and labels:
[1] = system: Narp association with AMPA receptor subunits; assay: Co-immunoprecipitation of Narp with AMPA receptor subunits in HEK-293 cells; type: cell-based; conditions: 1 mM tunicamycin
Text: Co-immunoprecipitation experiments were used to examine whether Narp is physically associated with AMPA receptors in HEK-293 cells.

[2] = system: NPR-myc and GluR2-HA in COS-7 cells; assay: Live staining of NPR clusters in transfected COS-7 cells after PMA; type: cell-based
Procedure: Immunocytochemical staining. Immunocytochemical staining of heterologous cells was performed as described (Xu et al., supra). For PMA-stimulation experiments, PMA (Sigma Cat #: P8139) at (150 nM) was added 90 minutes prior to live staining. Images were viewed and captured using Nikon E800 epifluorescence microscope fitted with a Princeton Instruments CCD camera. For live staining, neurons cultured on coverslips were incubated at 10° C. with the appropriate primary antibodies at the indicated dilutions in conditioned culture medium for 20 min. They were then washed with PBS and fixed with 4% paraformaldehyde/4% sucrose in PBS for 20 min at room temperature. Cells were permeablized with 0.2% Triton X-100 in PBS for 5 min and then blocked in 10% normal goat serum in PBS for 1 hr at room temperature. […] For quantification of the punctate structures (e.g. GluR1), images were thresholded by grey value to differentiate single puncta. Segments of dendrites were selected and number of puncta was calculated per […] of length dendrite. Figures show ratios of calculated mean densities (number of puncta per unit length) from treated/control. Error bars were calculated using SEM and Gaussian error propagation. n=number of measured dendrites. Significance was determined by paired Student's T-test. […]

[3] = system: NPR cleavage at Site A (TACE); assay: NPR cleavage assay in transfected HEK293T cells; type: cell-based, rat; conditions: PMA 150 nM, cells transfected with NPR
Procedure: Cleavage Assay HEK293T cells were plated in OptiMEM (Invitrogen, Carlsbad, Calif.) containing 5% FBS onto 6-well dishes at a density of 4×10^5 cells/mL (2 mL/well) 1 day before transfection. Cells were transfected with NPR in pRK5 using LipofectAMINE 2000 (Invitrogen, Carlsbad Calif.). After 24 hr the medium was replaced with serum-free OptiMEM. […] Samples from each well were obtained at specific time points, immediately placed on ice, centrifuged at 15,000 g to remove cell debris, and then treated with 2% β-mercaptoethanol containing loading buffer. At the end of the time course, the cells were lysed with RIPA buffer, centrifuged to remove cell debris, and treated with 2% β-mercaptoethanol in loading buffer. Samples (20 μL of medium or lysate diluted to 1/5) were run on SDS-PAGE gels and analyzed by Western blotting.

Molecule | association between Narp and AMPA receptor subunits [1] | NPR distribution on COS-7 cells expressing NPR-myc ([2]; PMA 150 nM, 90 min) | clustering of NPR and GluR2 in COS-7 cells co-transfected with NPR-myc and GluR2-HA ([2]; PMA treated) | accumulation of LFC-NPR in the medium [3]
tunicamycin | no effect |  |  | 
CCCCCCCCCCCCCC(=O)O[C@@H]1[C@@H](C)[C@@]2(O)[C@@H](C=C(CO)C[C@]3(O)C(=O)C(C)=C[C@@H]23)[C@@H]2C(C)(C)[C@]12OC(C)=O [PMA, phorbol myristate acetate] |  | large clusters of NPR were detected | exhibited co-clusters of NPR and GluR2 | increased the accumulation of LFC-NPR in the medium

Source: patent publication US20090123940A1, “MOLECULES INVOLVED IN SYNAPTOGENESIS AND USES THEREFOR” (THE JOHNS HOPKINS UNIVERSITY, priority 2007, published 2009)
